From ChEMBL document CHEMBL5113383, “Application of the All-Hydrocarbon Stapling Technique in the Design of Membrane-Active Peptides” (J Med Chem, 2022) come the findings set out here.

The nature of series [1]: Hemolytic activity in rabbit erythrocytes. The class given is toxicity, cell-based, Oryctolagus cuniculus, Erythrocyte.
Series [2] can be described thus: Hemolytic activity in human erythrocytes incubated for 30 mins. The format is toxicity, cell-based, Erythrocyte.
Series [3] can be described thus: Hemolytic activity in human erythrocytes. The format is toxicity, cell-based, Erythrocyte.
The test system of series [4] is Candida albicans. As to the kind of experiment: Antimicrobial activity against Candida albicans SC5314. The format is functional.
In series [5] the test system is Candida albicans. In words: Antimicrobial activity against Candida albicans 901. The class given is functional.
Series [6] has as its system Candida albicans. As to the kind of experiment: Antimicrobial activity against Candida albicans 904. The class given is functional.
Series [7] deals with Candida tropicalis. As to the kind of experiment: Antimicrobial activity against Candida tropicalis ATCC 20026. The class given is functional.
Series [8] concerns Candida tropicalis. In words: Antimicrobial activity against Candida tropicalis 895. The format is functional.
The test system of series [9] is Nakaseomyces glabratus. In words: Antimicrobial activity against Candida glabrata ATCC 1182. The class given is functional.
Series [10] has as its system Nakaseomyces glabratus. As to the kind of experiment: Antimicrobial activity against Candida glabrata 896. The class given is functional.
The subject of series [11] is [Candida] auris. In words: Antimicrobial activity against Candida auris 918. The class given is functional. Particulars: Candidozyma auris.
Series [12] deals with [Candida] auris. In words: Antimicrobial activity against Candida auris 919. Particulars: Candidozyma auris. The format is functional.
Another series concerns Pichia kudriavzevii. In words: Antimicrobial activity against Candida krusei ATCC 2340. The class given is functional.
The test system of the next series is Candida parapsilosis. As to the kind of experiment: Antimicrobial activity against Candida parapsilosis ATCC 22010. The format is functional. The conditions noted are these: Lodderomyces parapsilosis.
Series [13] can be described thus: Hemolytic activity in human erythrocytes incubated for 1 hr. Particulars: read-out: Activity. The format is toxicity, cell-based, Erythrocyte.

Converted amounts (≈) assume the structure as drawn. Positions of bridges follow the written chain, without caps; N, C: chain ends. Non-standard residues stand in square brackets, D forms with d. Residues, ends and D or L forms follow the SMILES beside them. S5 = C=CCCC[C@](C)(N)C(=O)O; Nle = CCCC[C@H](N)C(=O)O

As to `CC[C@H](C)[C@H](NC(=O)CNC(C)=O)C(=O)NCC(=O)N[C@@H](C)C(=O)N[C@H](C(=O)N[C@@H](CC(C)C)C(=O)N[C@@H](CCCCN)C(=O)N[C@H](C(=O)N[C@@H](CC(C)C)C(=O)N[C@H](C(=O)N[C@H](C(=O)NCC(=O)N[C@@H](CC(C)C)C(=O)N1CCC[C@H]1C(=O)N[C@]1(C)CCCCCC/C=C\CCC[C@@](C)(C(=O)N[C@@H](CCCCN)C(=O)N[C@@H](CCCNC(=N)N)C(=O)N[C@@H](CCC(N)=O)C(=O)N[C@@H](CCC(N)=O)C(N)=O)NC(=O)[C@H](CCCCN)NC(=O)[C@H]([C@@H](C)CC)NC(=O)[C@H](Cc2c[nH]c3ccccc23)NC(=O)[C@H](CO)NC(=O)[C@H]([C@@H](C)CC)NC(=O)[C@H](CC(C)C)NC1=O)[C@@H](C)O)[C@@H](C)O)C(C)C)C(C)C`, the HC50 in series [1] was determined as 700 nM.
On the same count and under the same terms, with `CC[C@H](C)[C@H](NC(=O)CNC(C)=O)C(=O)NCC(=O)N[C@@H](C)C(=O)N[C@H](C(=O)N[C@@H](CC(C)C)C(=O)N[C@@H](CCCCN)C(=O)N[C@H](C(=O)N[C@@H](CC(C)C)C(=O)N[C@H](C(=O)N[C@H](C(=O)NCC(=O)N[C@@H](CC(C)C)C(=O)N1CCC[C@H]1C(=O)N[C@@H](C)C(=O)N[C@@H](CC(C)C)C(=O)N[C@H](C(=O)N[C@@H](CO)C(=O)N[C@@H](Cc1c[nH]c2ccccc12)C(=O)N[C@H](C(=O)N[C@@H](CCCCN)C(=O)N[C@@H](CCCNC(=N)N)C(=O)N[C@@H](CCCCN)C(=O)N[C@@H](CCCNC(=N)N)C(=O)N[C@@H](CCC(N)=O)C(=O)N[C@@H](CCC(N)=O)C(N)=O)[C@@H](C)CC)[C@@H](C)CC)[C@@H](C)CC)[C@@H](C)O)C(C)C)C(C)C` the figure was 2600 nM.
In [2], `CC(=O)N[C@@H](CCCCN)C(=O)N[C@@]1(C)CCC/C=C\CCC[C@@](C)(C(=O)N[C@@H](CCCCN)C(N)=O)NC(=O)[C@H](C)NC(=O)[C@H](CCCCN)NC(=O)[C@H](Cc2c[nH]c3ccccc23)NC1=O` (Ac-K[S5]WKA[S5]K-NH2; staple (Z) 2-6) showed a concentration for 50% haemolysis (HC50) at 0.5 h of 1400 nM.
Regarding `CC(=O)N[C@@H](CCCCN)C(=O)N[C@@]1(C)CCC/C=C\CCC[C@@](C)(C(=O)N[C@@H](CCCCN)C(N)=O)NC(=O)[C@H](CC(C)C)NC(=O)[C@H](CCCCN)NC(=O)[C@H](Cc2c[nH]c3ccccc23)NC1=O` (Ac-K[S5]WKL[S5]K-NH2; staple (Z) 2-6), the HC50 at 0.5 h in [2] is less than 1000 nM.
In series [3], `CC[C@H](C)[C@H](NC(=O)CN)C(=O)N[C@@H](CCSC)C(=O)N[C@@H](CO)C(=O)N[C@@H](CO)C(=O)N[C@@H](CC(C)C)C(=O)N[C@@H](CCSC)C(=O)N[C@@H](CCCCN)C(=O)N[C@@H](CCCCN)C(=O)N[C@@H](CC(C)C)C(=O)N[C@@]1(C)CCC/C=C\CCC[C@@](C)(C(=O)N[C@@H](CCCCN)C(N)=O)NC(=O)[C@H]([C@@H](C)CC)NC(=O)[C@H](Cc2cnc[nH]2)NC(=O)[C@H](C)NC1=O` (H-GIMSSLMKKL[S5]AHI[S5]K-NH2; staple (Z) 11-15) registered an HC50 of 125 µM.
For the molecule `CC[C@H](C)[C@@H]1NC(=O)[C@H]([C@@H](C)CC)NC(=O)[C@@](C)(NC(=O)[C@H](Cc2ccccc2)NC(=O)[C@H](CC(C)C)NC(=O)CN)CCC/C=C\CCC[C@@](C)(C(=O)N[C@H](C(=O)N[C@@H](C)C(=O)N[C@@H](CCC(=O)O)C(=O)N[C@@H](CO)C(=O)N[C@@H](Cc2ccccc2)C(N)=O)[C@@H](C)CC)NC(=O)[C@H](CCCCN)NC1=O` (H-GLF[S5]IIK[S5]IAESF-NH2; staple (Z) 4-8), the minimal inhibitory concentration (MIC) against Candida albicans [4] is more than 64 µg/mL; against Candida albicans [5], more than 128 µg/mL; with Candida albicans [6], more than 128 µg/mL; against Candida tropicalis [7] it was more than 128 µg/mL; with Candida tropicalis [8], more than 128 µg/mL; in the series on Nakaseomyces glabratus [9], more than 128 µg/mL. The MIC (with Nakaseomyces glabratus [10]; in series [Candida] auris [11]; in series [Candida] auris [12]; in the series on Pichia kudriavzevii; with Candida parapsilosis) was more than 128 µg/mL each time.
In the case of `CC(C)[C@@H]1NC(=O)[C@@](C)(NC(=O)[C@H](C)NC(=O)[C@H](CCCCN)NC(=O)CNC(=O)[C@H](Cc2ccccc2)NC(=O)[C@H](CCCCN)NC(=O)[C@H](CCCCN)NC(=O)[C@H](CCCCN)NC(=O)[C@H](CO)NC(=O)[C@H](Cc2cnc[nH]2)NC(=O)[C@]2(C)CCC/C=C\CCC[C@](C)(NC(=O)CN)C(=O)NCC(=O)N[C@@H](CCCCN)C(=O)N[C@@H](Cc3ccccc3)C(=O)N2)CCC/C=C\CCC[C@@](C)(C(=O)N[C@@H](C)C(=O)N[C@@H](CCCCN)C(=O)N[C@@H](CCCCN)C(N)=O)NC(=O)[C@H](CCC(=O)O)NC(=O)CNC1=O` (H-G[S5]GKF[S5]HSKKKFGKA[S5]VGE[S5]AKK-NH2; staple (Z) 2-6, 16-20), the 50% haemolytic concentration (HC50) in series [3] was more than 400 µM. Besides, the hemolysis at 1 h in series [13] is less than 1%.
Turning to `CC[C@H](C)[C@H](N)C(=O)N[C@@H](CC(=O)O)C(=O)N[C@@H](Cc1c[nH]c2ccccc12)C(=O)N[C@@H](CCCCN)C(=O)N[C@@H](CCCCN)C(=O)N[C@@]1(C)CCC/C=C\CCC[C@@](C)(C(=O)N[C@@H](CCCCN)C(=O)N[C@@H](CCC(N)=O)C(=O)N[C@H](C(=O)N[C@@H](CC(C)C)C(=O)O)[C@@H](C)CC)NC(=O)[C@H](C)NC(=O)[C@H](CC(=O)O)NC(=O)[C@H](CC(C)C)NC1=O` (H-IDWKK[S5]LDA[S5]KQIL-OH; staple (Z) 6-10), the 50% haemolytic concentration (HC50) at 0.5 h in series [2] is 12300 nM.
As to `CC(C)C[C@@H]1NC(=O)[C@H](CCCCN)NC(=O)[C@H](Cc2c[nH]c3ccccc23)NC(=O)[C@@](C)(NC(=O)[C@@H](N)CCCCN)CCC/C=C\CCC[C@@](C)(C(=O)N[C@@H](CCCCN)C(N)=O)NC1=O` (H-K[S5]WKL[S5]K-NH2; staple (Z) 2-6), the HC50 at 0.5 h in series [2] was less than 1000 nM.
The molecule `CCCC[C@@H]1NC(=O)[C@H](CCCCN)NC(=O)[C@H](Cc2c[nH]c3ccccc23)NC(=O)[C@@](C)(NC(=O)[C@@H](N)CCCCN)CCC/C=C\CCC[C@@](C)(C(=O)N[C@@H](CCCCN)C(N)=O)NC1=O` (H-K[S5]WK[Nle][S5]K-NH2; staple (Z) 2-6) had a 50% haemolytic concentration (HC50) at 0.5 h in series [2] of 3300 nM.
Take `OC(Cn1cncn1)(Cn1cncn1)c1ccc(F)cc1F` [FLUCONAZOLE]: the MIC against Candida albicans [4] was 0.5 µg/mL (≈ 1.63 µM); against Candida albicans [5], more than 64 µg/mL; against Candida albicans [6], more than 64 µg/mL; in the series on Candida tropicalis [7] it was 1 µg/mL (≈ 3.27 µM); with Candida tropicalis [8], more than 128 µg/mL; in the series with Nakaseomyces glabratus [9], 2 µg/mL (≈ 6.53 µM). Further, the MIC is more than 128 µg/mL with Nakaseomyces glabratus [10]; more than 128 µg/mL in [Candida] auris [11]; more than 128 µg/mL in series [Candida] auris [12]; 64 µg/mL (≈ 209 µM) in the series with Pichia kudriavzevii; 1 µg/mL (≈ 3.27 µM) against Candida parapsilosis.
As for Ac-GLFDIIKKIAESF-NH2, the MIC was more than 64 µg/mL against Candida albicans [4]; more than 128 µg/mL against Candida albicans [5]; more than 128 µg/mL in the series with Candida albicans [6]; more than 128 µg/mL in the series with Candida tropicalis [7]; more than 128 µg/mL against Candida tropicalis [8]; more than 128 µg/mL with Nakaseomyces glabratus [9]. Further, the MIC (in the series on Nakaseomyces glabratus [10]; in [Candida] auris [11]; in series [Candida] auris [12]; with Pichia kudriavzevii; with Candida parapsilosis) was more than 128 µg/mL in each case.
